According to patent publication US4185032A, “Ureylene phenylene anionic naphthalenesulfonic acids” (American Cyanamid Company, priority 1978, dated 1980):
Structures can show the parent of a compound that is named as a salt.

Experiments:
activated human C1 = target: T1, activated human C1 (Homo sapiens, UniProt P09871); test: Test Code 026 (C1 inhibitor); format: biochemical; settings: well number in twofold serial dilution assay, higher = more active
T1 construct: fluid-phase human C2 as substrate in presence of C4
T1 sequence (P09871 16-688): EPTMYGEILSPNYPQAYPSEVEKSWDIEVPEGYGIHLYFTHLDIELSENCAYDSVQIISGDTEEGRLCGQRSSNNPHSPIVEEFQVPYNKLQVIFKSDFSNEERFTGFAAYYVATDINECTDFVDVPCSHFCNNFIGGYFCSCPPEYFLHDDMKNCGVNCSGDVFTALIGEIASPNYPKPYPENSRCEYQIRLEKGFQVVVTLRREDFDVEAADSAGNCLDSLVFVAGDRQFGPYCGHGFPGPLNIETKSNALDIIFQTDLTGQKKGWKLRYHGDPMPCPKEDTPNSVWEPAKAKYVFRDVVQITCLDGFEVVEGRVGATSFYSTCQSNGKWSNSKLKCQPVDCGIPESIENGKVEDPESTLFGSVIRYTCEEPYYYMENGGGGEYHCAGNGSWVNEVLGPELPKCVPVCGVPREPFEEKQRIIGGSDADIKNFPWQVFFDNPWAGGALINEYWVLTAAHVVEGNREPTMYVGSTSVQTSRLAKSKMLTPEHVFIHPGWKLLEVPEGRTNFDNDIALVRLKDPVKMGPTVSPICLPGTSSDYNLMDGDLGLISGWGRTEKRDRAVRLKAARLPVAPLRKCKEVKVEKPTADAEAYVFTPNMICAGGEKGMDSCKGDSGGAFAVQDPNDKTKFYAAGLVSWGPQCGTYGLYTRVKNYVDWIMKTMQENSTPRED
T1 sequence (P00736 18-705 partner): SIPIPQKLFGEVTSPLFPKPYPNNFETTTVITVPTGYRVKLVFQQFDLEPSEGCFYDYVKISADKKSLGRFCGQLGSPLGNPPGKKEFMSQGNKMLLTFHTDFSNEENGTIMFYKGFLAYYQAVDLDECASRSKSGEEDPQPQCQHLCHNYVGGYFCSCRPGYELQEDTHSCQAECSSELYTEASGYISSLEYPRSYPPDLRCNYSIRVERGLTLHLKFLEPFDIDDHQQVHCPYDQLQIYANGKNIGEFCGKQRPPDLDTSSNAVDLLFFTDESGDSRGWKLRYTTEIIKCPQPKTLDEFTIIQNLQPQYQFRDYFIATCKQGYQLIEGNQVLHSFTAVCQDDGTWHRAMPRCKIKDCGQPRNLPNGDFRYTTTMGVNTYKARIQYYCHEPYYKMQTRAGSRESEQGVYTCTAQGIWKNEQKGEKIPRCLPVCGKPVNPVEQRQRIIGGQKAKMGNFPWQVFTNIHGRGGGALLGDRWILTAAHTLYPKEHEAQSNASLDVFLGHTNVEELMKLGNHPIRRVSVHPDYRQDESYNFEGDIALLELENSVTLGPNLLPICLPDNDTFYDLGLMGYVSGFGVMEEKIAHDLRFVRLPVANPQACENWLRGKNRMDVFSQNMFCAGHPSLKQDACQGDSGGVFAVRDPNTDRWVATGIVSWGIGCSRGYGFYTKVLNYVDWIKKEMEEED
T1 sequence (P02745 23-245 partner): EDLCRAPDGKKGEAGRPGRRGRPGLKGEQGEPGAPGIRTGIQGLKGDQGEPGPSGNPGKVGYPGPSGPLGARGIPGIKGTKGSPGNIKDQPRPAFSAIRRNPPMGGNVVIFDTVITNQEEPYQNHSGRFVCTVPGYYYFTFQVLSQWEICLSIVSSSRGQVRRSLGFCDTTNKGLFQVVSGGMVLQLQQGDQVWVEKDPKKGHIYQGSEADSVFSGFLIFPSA
T1 sequence (P02746 28-253 partner): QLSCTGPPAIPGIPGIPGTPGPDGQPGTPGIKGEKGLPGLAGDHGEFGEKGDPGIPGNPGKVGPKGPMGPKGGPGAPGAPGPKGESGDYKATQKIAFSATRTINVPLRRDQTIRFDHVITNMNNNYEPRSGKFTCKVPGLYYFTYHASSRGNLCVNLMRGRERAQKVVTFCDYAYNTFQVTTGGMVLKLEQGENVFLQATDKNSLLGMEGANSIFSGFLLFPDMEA
T1 sequence (P02747 29-245 partner): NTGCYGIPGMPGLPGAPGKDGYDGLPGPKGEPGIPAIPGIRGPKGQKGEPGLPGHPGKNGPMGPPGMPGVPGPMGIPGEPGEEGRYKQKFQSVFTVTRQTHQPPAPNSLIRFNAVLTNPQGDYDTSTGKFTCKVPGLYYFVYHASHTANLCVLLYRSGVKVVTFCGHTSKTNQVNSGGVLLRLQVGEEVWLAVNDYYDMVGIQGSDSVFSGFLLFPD
Excerpt: (§1) An active inhibitor protects C2 from C1 and C4; (ii) Test Code 035 (C3-C9 inhibitor)--This test determines the ability of the late components of human complement (C3-C9) to lyse EAC 142 in the presence of appropriate dilutions of the test compound. An active inhibitor protects EAC 142 from lysis by human C3-C9; (iii) Test Code 036 (C-Shunt inhibitor)--In this test human erythrocytes rendered fragile are lysed in autologous serum via the shunt pathway activated by cobra venom factor in the presence of appropriate dilutions of the test compound. Inhibition of the shunt pathway results in failure of lysis; (iv) Forssman Vasculitis Test--Here, the well known complement dependent lesion, Forssman vasculitis, is produced in guinea pigs by intradermal injection of rabbit anti-Forssman antiserum. The lesion is measured in terms of diameter, edema and hemorrhage and the extent to which a combined index of these is inhibited by prior intraperitoneal injection of the test compound at 200 mg/kg is then reported, unless otherwise stated; (v) Forssman Shock Test--Lethal shock is produced in guinea pigs by an i.v. injection of anti-Forssman antiserum and the harmonic mean death time of treated guinea pigs is compared with that of simultaneous controls; (vi) Complement Level Reduction Test--In this test, the above dosed guinea pigs, or others, are bled for serum and the complement level is determined in undiluted serum by the capillary tube method of U.S. Pat. No. 3,876,376 and compared to undosed control guinea pigs; and (viii) Cap 50 Test--Here, appropriate amounts of the test compound are added to a pool of guinea pig serum in vitro, after which the undiluted serum capillary tube assay referred to about is run. The concentration of compound inhibiting 50% is reported.

whole complement = test: Complement Level Reduction Test (in vivo, guinea pig; serum whole complement by capillary tube assay)
Excerpt: as §1
With reference to Table I. guinea pigs weighing about 300 g were dosed intravenously (i.v.) or intraperitoneally (i.p.) with 200 mg/kg of the test compound dissolved in saline and adjusted to pH 7-8. […] The serum was tested for whole complement using the capillary tube assay. Percent inhibition was calculated by comparison with simultaneous controls. The results appear in Table I together with results of tests code 026, 035, 036, Cap 50, % inhibition and Forssman shock.

complement system = settings: literature, in words; cited from earlier work
[1] = system: late components of human complement (C3-C9); test: Test Code 035 (C3-C9 inhibitor), lysis of EAC 142; format: cell-based
Excerpt: as §1

shunt pathway = test: Test Code 036 (C-Shunt inhibitor), lysis of human erythrocytes via the shunt pathway activated by cobra venom factor; format: cell-based
Excerpt: as §1

human serum complement = settings: in vitro and in vivo; reduction in total hemolytic complement activity; cited from earlier work
[2] = system: hereditary angioneurotic edema; settings: literature, in words; cited from earlier work
[3] = Table I, well number in twofold serial dilution assay, higher = more active
[4] = Table II (Intermediates), twofold serial dilution assay

**Q.** What does the source list for `Cc1ccc(C(=O)Nc2ccc(S(=O)(=O)O)c3cc(S(=O)(=O)O)cc(S(=O)(=O)O)c23)cc1NC(=O)c1cccc(NC(=O)Nc2cccc(C(=O)Nc3cc(C(=O)Nc4ccc(S(=O)(=O)O)c5cc(S(=O)(=O)O)cc(S(=O)(=O)O)c45)ccc3C)c2)c1` [Suramin, reference compound]?
**A.** Cl 026 Wells (activated human C1; Table I): +4 wells; % Inhibition, Intraperitoneal, 30 minutes (whole complement; Table I, i.p. 200 mg/kg): -9%; % Inhibition, Intraperitoneal, 60 minutes (whole complement; Table I, i.p. 200 mg/kg): -17%; % Inhibition, Intraperitoneal, 120 minutes (whole complement; Table I, i.p. 200 mg/kg): -44%; anticomplementary effect / complement inhibition (complement system): moderately active as a complement inhibitor

**Q.** With `Nc1ccc2cc(S(=O)(=O)O)cc(O)c2c1N=Nc1ccc(NC(=O)Nc2ccc(N=Nc3c(N)ccc4cc(S(=O)(=O)O)cc(O)c34)c(S(=O)(=O)O)c2)cc1S(=O)(=O)O` [chloroazol fast pink, 3,3'-ureylenebis[6-(2-amino-8-hydroxy-6-sulfo-1-naphthylazo)benezenesulfonic acid], tetrasodium salt] as the molecule, how does the “anticomplementary effect / complement inhibition” value (complement system) read?
**A.** Its value is “anticomplementary effect”.

**Q.** With `O=C(Nc1ccc(C(=O)Nc2ccc(C(=O)Nc3ccc(S(=O)(=O)[O-])c4cc(S(=O)(=O)[O-])cc(S(=O)(=O)[O-])c34)c(S(=O)(=O)[O-])c2)c(S(=O)(=O)[O-])c1)Nc1ccc(C(=O)Nc2ccc(C(=O)Nc3ccc(S(=O)(=O)[O-])c4cc(S(=O)(=O)[O-])cc(S(=O)(=O)[O-])c34)c(S(=O)(=O)[O-])c2)c(S(=O)(=O)[O-])c1.[Na+].[Na+].[Na+].[Na+].[Na+].[Na+].[Na+].[Na+].[Na+].[Na+]` [8,8'-[Ureylenebis[(2-sulfo-4,1-phenylenecarbonyl)imino(2-sulfo-4,1-phenylenecarbonyl)imino]]di-1,3,5-naphthalenetrisulfonic acid, decasodium salt] as the molecule, how does the “Cl 026 Wells” value (activated human C1; Table I) read?
**A.** The value was “+7 wells”.

**Q.** What about the “C-Late 035 Wells” value [1, 3] of the same molecule?
**A.** Its value is “+1 wells”.

**Q.** And the “% Inhibition, Intraperitoneal, 30 minutes” value (whole complement; Table I, i.p. 200 mg/kg)?
**A.** Its value is -31%.

**Q.** And the “% Inhibition, Intraperitoneal, 60 minutes” value (whole complement; Table I, i.p. 200 mg/kg)?
**A.** The value was -36%.

**Q.** And the “% Inhibition, Intraperitoneal, 120 minutes” value (whole complement; Table I, i.p. 200 mg/kg)?
**A.** Its value is -58%.

**Q.** What about the “% Inhibition, Intravenous, 2 minutes” value (whole complement; Table I, i.v. 200 mg/kg) of the same molecule?
**A.** The value was -38%.

**Q.** And the “% Inhibition, Intravenous, 30 minutes” value (whole complement; Table I, i.v. 200 mg/kg)?
**A.** Its value is -47%.

**Q.** And the “% Inhibition, Intravenous, 120 minutes” value (whole complement; Table I, i.v. 200 mg/kg)?
**A.** The value was -22%.

**Q.** What about the “Shunt Inhibition 036 Wells” value (shunt pathway; [3]) of the same molecule?
**A.** The value was “+4 wells”.

**Q.** For heparin, which “anticomplementary effect / complement inhibition” value (complement system) is on record?
**A.** The value was “anticomplementary effect”.

**Q.** For pentosan-polysulfoester, which “anticomplementary activity on human serum” value (human serum complement) is on record?
**A.** Its value is “anticomplementary activity on human serum, both in vitro and in vivo”.

**Q.** Which “success in the treatment of hereditary angioneurotic edema” value [2] does the source give for `NCCCCCC(=O)O` [epsilon-aminocaproic acid] here?
**A.** Its value is “used with success in the treatment of hereditary angioneurotic edema”.

**Q.** What does the source list for `O=C(Nc1ccc(C(=O)Nc2cc(C(=O)O)cc(C(=O)Nc3ccc(S(=O)(=O)O)c4cc(S(=O)(=O)O)cc(S(=O)(=O)O)c34)c2)c(S(=O)(=O)O)c1)Nc1ccc(C(=O)Nc2cc(C(=O)O)cc(C(=O)Nc3ccc(S(=O)(=O)O)c4cc(S(=O)(=O)O)cc(S(=O)(=O)O)c34)c2)c(S(=O)(=O)O)c1` [5,5'-[Ureylenebis[(2-sulfo-4,1-phenylenecarbonyl)-imino]]bis[N-4,6,8-trisulfo-1-naphthylisophthalamic acid], octasodium salt]?
**A.** Cl 026 Wells (activated human C1; Table I): +6 wells; C-Late 035 Wells [1, 3]: +2 wells; Shunt Inhibition 036 Wells (shunt pathway; [3]): +5 wells

**Q.** For `Nc1ccc(C(=O)Nc2cc(C(=O)O)cc(C(=O)Nc3ccc(S(=O)(=O)[O-])c4cc(S(=O)(=O)[O-])cc(S(=O)(=O)[O-])c34)c2)c(S(=O)(=O)[O-])c1.[Na+].[Na+].[Na+].[Na+]` [5-(4-Amino-2-sulfobenzamido)-N-(4,6,8-trisulfo-1-naphthyl)isophthalamic acid, tetrasodium salt], which “Cl 026 Wells” value (activated human C1; Table II (Intermediates)) is on record?
**A.** Its value is “+3 wells”.

**Q.** What about the “C-Late 035 Wells” value [1, 4] of the same molecule?
**A.** The value was “N”.

**Q.** What about the “Shunt Inhibition 036 Wells” value (shunt pathway; [4]) of the same molecule?
**A.** The value was “N”.

**Q.** With `NC[C@H]1CC[C@H](C(=O)O)CC1` [tranexamic acid] as the molecule, how does the “success in the treatment of hereditary angioneurotic edema” value [2] read?
**A.** The value was “used with success in the treatment of hereditary angioneurotic edema”.

**Q.** For `Nc1cc(C(=O)O)cc(C(=O)Nc2cc(C(=O)O)cc(C(=O)Nc3ccc(S(=O)(=O)[O-])c4cc(S(=O)(=O)[O-])cc(S(=O)(=O)[O-])c34)c2)c1.[Na+].[Na+].[Na+]` [5-Amino-3'-carboxy-5'-(4,6,8-trisulfo-1-naphthylcarbamoyl)isophthalanilic acid, trisodium salt], which “Cl 026 Wells” value (activated human C1; Table II (Intermediates)) is on record?
**A.** The value was “+3 wells”.

**Q.** What about the “C-Late 035 Wells” value [1, 4] of the same molecule?
**A.** Its value is “N”.

**Q.** And the “Shunt Inhibition 036 Wells” value (shunt pathway; [4])?
**A.** Its value is “N”.

**Q.** Which results are given for `Nc1ccc(C(=O)Nc2ccc(C(=O)Nc3ccc(S(=O)(=O)[O-])c4cc(S(=O)(=O)[O-])cc(S(=O)(=O)[O-])c34)c(S(=O)(=O)[O-])c2)c(S(=O)(=O)[O-])c1.[Na+].[Na+].[Na+].[Na+].[Na+]` [8-[4-(4-Amino-2-sulfobenzamido)-2-sulfobenzamido]-1,3,5-naphthalenetrisulfonic acid, pentasodium salt]?
**A.** Cl 026 Wells (activated human C1; Table II (Intermediates)): +4 wells; C-Late 035 Wells [1, 4]: N; % Inhibition, Intraperitoneal, 30 minutes (whole complement; Table II (Intermediates), i.p.): -15%; % Inhibition, Intraperitoneal, 60 minutes (whole complement; Table II (Intermediates), i.p.): -17%; % Inhibition, Intraperitoneal, 120 minutes (whole complement; Table II (Intermediates), i.p.): -23%; % Inhibition, Intravenous, 2 minutes (whole complement; Table II (Intermediates), i.v.): -52%; % Inhibition, Intravenous, 30 minutes (whole complement; Table II (Intermediates), i.v.): -28%; % Inhibition, Intravenous, 120 minutes (whole complement; Table II (Intermediates), i.v.): -10%; Shunt Inhibition 036 Wells (shunt pathway; [4]): N

**Q.** What does the source list for `O=C(Nc1cc(C(=O)O)cc(C(=O)Nc2cc(C(=O)O)cc(C(=O)Nc3ccc(S(=O)(=O)O)c4cc(S(=O)(=O)O)cc(S(=O)(=O)O)c34)c2)c1)Nc1cc(C(=O)O)cc(C(=O)Nc2cc(C(=O)O)cc(C(=O)Nc3ccc(S(=O)(=O)O)c4cc(S(=O)(=O)O)cc(S(=O)(=O)O)c34)c2)c1` [5,5'-Ureylenebis[N-[3-carboxy-5-(4,6,8-trisulfo-1-naphthylca] [5,5'-Ureylenebis[N-[3-carboxy-5-(4,6,8-trisulfo-1-naphthaylcarbamoyl)phenyl]isophthalamic acid], decasodium salt]?
**A.** C-Late 035 Wells [1, 3]: +2 wells; % Inhibition, Intraperitoneal, 30 minutes (whole complement; Table I, i.p. 200 mg/kg): -86%; % Inhibition, Intraperitoneal, 60 minutes (whole complement; Table I, i.p. 200 mg/kg): -89%; % Inhibition, Intraperitoneal, 120 minutes (whole complement; Table I, i.p. 200 mg/kg): -96%

**Q.** Which results are given for `O=C(Nc1ccc(C(=O)Nc2ccc(C(=O)Nc3cc(S(=O)(=O)O)cc4cc(S(=O)(=O)O)cc(S(=O)(=O)O)c34)c(S(=O)(=O)O)c2)c(S(=O)(=O)O)c1)Nc1ccc(C(=O)Nc2ccc(C(=O)Nc3cc(S(=O)(=O)O)cc4cc(S(=O)(=O)O)cc(S(=O)(=O)O)c34)c(S(=O)(=O)O)c2)c(S(=O)(=O)O)c1` [8,8'-[Ureylenebis[(2-sulfo-4,1-phenylenecarbonyl)-imino](2-sulfo-4,1-phenylenecarbonyl)imino]di-1,3,6-naphthalenetrisulfonic acid, decasodium salt]?
**A.** Cl 026 Wells (activated human C1; Table I): +8 wells; C-Late 035 Wells [1, 3]: +1 wells; % Inhibition, Intraperitoneal, 30 minutes (whole complement; Table I, i.p. 200 mg/kg): -68%; % Inhibition, Intraperitoneal, 60 minutes (whole complement; Table I, i.p. 200 mg/kg): -24%; % Inhibition, Intraperitoneal, 120 minutes (whole complement; Table I, i.p. 200 mg/kg): -14%

**Q.** Which “Cl 026 Wells” value (activated human C1; Table II (Intermediates)) does the source give for `Nc1ccc(C(=O)Nc2ccc(C(=O)Nc3cc(S(=O)(=O)[O-])cc4cc(S(=O)(=O)[O-])cc(S(=O)(=O)[O-])c34)c(S(=O)(=O)[O-])c2)c(S(=O)(=O)[O-])c1.[Na+].[Na+].[Na+].[Na+].[Na+]` [8-[4-(4-Amino-2-sulfobenzamido)-2-sulfobenzamido]-1,3,6-naphthalenetrisulfonic acid pentasodium salt] here?
**A.** Its value is “+5 wells”.

**Q.** And the “C-Late 035 Wells” value [1, 4]?
**A.** Its value is “N”.

**Q.** What about the “% Inhibition, Intravenous, 2 minutes” value (whole complement; Table II (Intermediates), i.v.) of the same molecule?
**A.** The value was -77%.

**Q.** And the “% Inhibition, Intravenous, 30 minutes” value (whole complement; Table II (Intermediates), i.v.)?
**A.** Its value is -43%.

**Q.** What about the “% Inhibition, Intravenous, 120 minutes” value (whole complement; Table II (Intermediates), i.v.) of the same molecule?
**A.** The value was -31%.

**Q.** What about the “Shunt Inhibition 036 Wells” value (shunt pathway; [4]) of the same molecule?
**A.** Its value is “N”.
